Reference: US20230181657A1, “NOVEL LACTIC ACID BACTERIA AND USE THEREOF” (UNIVERSITY- INDUSTRY COOPERATION GROUP OF KYUNG HEE …, priority 2018, published 2023)

Key:
Format in all cases: in vivo
[1] = system: animal model with osteoporosis (C57BL/6 mice with removed ovaries); assay: Osteoporosis indices in blood (AP activity, Ca, P, osteocalcin) of ovariectomized mice; details: bacteria 1×10^9 CFU orally for five weeks
Description: (§1) An experiment was performed by using six C57BL/6 mice (female, 21-23 g and 6 weeks old) per group after being acclimated in a laboratory for one week. After the mice were anesthetized with isoflurane, the ovaries were removed therefrom to create an animal model with osteoporosis. From one week after ovarian removal, Lactobacillus plantarum NK3, Bifidobacterium longum NK49, a 1:1 mixture thereof, or a 4:1 mixture thereof (a ratio of LP:BL is 4:1 and the same as below), which is a novel lactic acid bacterium, was orally administered in a daily amount of 1×10^9 CFU for six days a week for five weeks. In addition, 17β-estradiol (PC) was intraperitoneally administered at 10 μg/kg/day to the experimental animals of the positive control group, and the sham group and the experimental group with removed ovaries were orally dosed with physiological saline solution instead of drugs.
On the day after the administration of lactic acid bacteria was completed, the experimental animals were sacrificed, and then blood, thighbone, colon, womb, and liver were separated therefrom so as to measure osteoporosis indices.
Osteocalcin in blood was measured with R&D system ELISA Kit (Minneapolis, Minn., USA); Ca and P were measured with ASAN Ca-Lq Reagents and ASAN Pi-Lq Reagents of Asan Pharmaceutical Co., Ltd, respectively; and alkaline phosphatase (AP) activity was measured with Alkaline phosphatase activity colorimetric assay kit (Sigma, USA).

SREBP-1c = SREBP-1c expression in liver by qPCR, ovariectomized obesity model; details: liver mRNA, qPCR in comparison with β-actin; mice with removed ovaries; bacteria 1×10^9 CFU orally, PC 10 μg/kg/day intraperitoneally; Nor 1.0 ± 0.1, Con 4.5 ± 0.5
Description: as §1, with “week as described above in (1) of Example 2.” for “week.”, “isoflurane and” for “isoflurane,”, “therefrom, the resulting mice were raised for six weeks so as” for “therefrom”, “obesity, showing a significant weight gain.” for “osteoporosis.”, “thereof,” for “thereof (a ratio of LP:BL is 4:1 and the same as below),”, “drugs. […] The body weight was measured once a week. An expression of sterol regulatory element-binding transcription factor 1c (SREBP-1c) and peroxisome proliferator-activated receptor gamma coactivator 1-alpha (PGC-1α) was measured by using a quantitative reverse transcription polymerase chain reaction (qPCR). […] The amount of final expressed genes was calculated in comparison with β-actin.” for “drugs.”

PGC-1α = PGC-1α expression in liver by qPCR, ovariectomized obesity model; details: liver mRNA, qPCR in comparison with β-actin; mice with removed ovaries; bacteria 1×10^9 CFU orally, PC 10 μg/kg/day intraperitoneally; Nor 1.0 ± 0.1, Con 0.6 ± 0.2
Description: as §1, with “week as described above in (1) of Example 2.” for “week.”, “isoflurane and” for “isoflurane,”, “therefrom, the resulting mice were raised for six weeks so as” for “therefrom”, “obesity, showing a significant weight gain.” for “osteoporosis.”, “thereof,” for “thereof (a ratio of LP:BL is 4:1 and the same as below),”, “drugs. […] The body weight was measured once a week. An expression of sterol regulatory element-binding transcription factor 1c (SREBP-1c) and peroxisome proliferator-activated receptor gamma coactivator 1-alpha (PGC-1α) was measured by using a quantitative reverse transcription polymerase chain reaction (qPCR). […] The amount of final expressed genes was calculated in comparison with β-actin.” for “drugs.”

## C[C@]12CC[C@@H]3c4ccc(O)cc4CC[C@H]3[C@@H]1CC[C@@H]2O [PC, 17β-estradiol]
[1]; PC 10 μg/kg/day intraperitoneally, Con 1.85 ± 0.32
  Osteocalcin in blood: 1.53 ± 0.15 µg/L
[1]; PC 10 μg/kg/day intraperitoneally, Con 6.4 ± 0.4
  Ca in blood: 6.2 ± 0.2 mg/dL
[1]; PC 10 μg/kg/day intraperitoneally, Con 12.5 ± 1.5
  P in blood: 12.1 ± 1.1 mg/dL
[1]; PC 17β-estradiol 10 μg/kg/day intraperitoneally, Con 282.2 ± 10.3
  AP (alkaline phosphatase activity in blood): 220.6 ± 10.3 IU/L
SREBP-1c
  SREBP-1c expression: 2.7 ± 0.3
PGC-1α
  PGC-1α expression: 0.8 ± 0.2
